Drawing on patent US6329377A, “Ketomethylene group-containing cysteine and serine protease inhibitors” (Cephalon, Inc., priority 2000, dated 2001), this text covers kinact/KI, inhibition and IC50 for seven molecules.

What all share (type): biochemical
The target in test [1] is T1, Calpain I (Homo sapiens, UniProt P07384).
T1 construct: made in house
T1 sequence (P07384 1-714): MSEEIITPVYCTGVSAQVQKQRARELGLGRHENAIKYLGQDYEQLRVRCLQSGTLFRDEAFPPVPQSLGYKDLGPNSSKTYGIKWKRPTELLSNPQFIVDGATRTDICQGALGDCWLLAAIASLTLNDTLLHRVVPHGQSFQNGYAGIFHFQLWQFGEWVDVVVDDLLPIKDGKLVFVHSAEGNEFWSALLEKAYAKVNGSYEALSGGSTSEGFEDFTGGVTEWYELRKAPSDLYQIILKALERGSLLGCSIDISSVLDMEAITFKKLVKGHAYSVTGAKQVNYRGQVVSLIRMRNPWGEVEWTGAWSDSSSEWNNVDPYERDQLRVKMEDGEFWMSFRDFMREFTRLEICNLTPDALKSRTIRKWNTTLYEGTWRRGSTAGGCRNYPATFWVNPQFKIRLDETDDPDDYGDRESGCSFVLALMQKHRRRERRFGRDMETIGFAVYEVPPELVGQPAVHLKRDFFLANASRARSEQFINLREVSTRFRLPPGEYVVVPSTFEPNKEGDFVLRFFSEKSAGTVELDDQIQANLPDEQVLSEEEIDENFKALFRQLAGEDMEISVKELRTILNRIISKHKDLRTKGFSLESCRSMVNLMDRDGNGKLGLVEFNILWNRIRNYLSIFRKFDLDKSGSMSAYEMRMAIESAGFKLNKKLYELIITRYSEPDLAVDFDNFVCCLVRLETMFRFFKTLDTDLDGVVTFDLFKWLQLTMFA
T1 sequence (P04632 1-268 partner): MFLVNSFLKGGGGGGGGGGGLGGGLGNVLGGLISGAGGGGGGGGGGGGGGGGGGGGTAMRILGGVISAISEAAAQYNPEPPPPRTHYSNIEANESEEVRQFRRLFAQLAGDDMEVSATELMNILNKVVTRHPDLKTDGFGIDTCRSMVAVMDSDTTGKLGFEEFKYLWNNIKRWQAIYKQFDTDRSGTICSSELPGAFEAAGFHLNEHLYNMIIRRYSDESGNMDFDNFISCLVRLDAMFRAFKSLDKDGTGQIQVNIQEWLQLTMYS
The experiment in a line: Rate of inactivation of calpain I (second order rate constant). The settings on record: pH 7.5, pseudo-first order conditions, read-out: Calpain Inactivation Rates. How it is done:
(§1) To evaluate inhibitory activity, stock solutions (40 times concentrated) of each compound to be tested were prepared in 100% anhydrous DMSO and 5 μL of each inhibitor preparation were aliquoted into each of three wells of a 96-well plate. Calpain I, prepared by a modification of the method of W. J. Lee et al. (Biochem. Internatl. 22: 163-171 (1990)), was diluted into assay buffer (i.e., 50 mM Tris, 50 mM NaCl, 1 mM EDTA, 1 mM EGTA, and 5 mM-mercaptoethanol, pH 7.5 including 0.2 mM Succ-Leu-Tyr-MNA) and 175 μL aliquoted into the same wells containing the independent inhibitor stocks as well as to positive control wells containing 5 μL DMSO, but no compound. To start the reaction, 20 μL of 50 mM CaCl2 in assay buffer was added to all wells of the plate, excepting three, which were used as background signal baseline controls. Substrate hydrolysis was monitored every 5 minutes for a total of 30 minutes using a Fluoroskan II fluorescence plate reader. Substrate hydrolysis in the absence of inhibitor was linear for up to 15 minutes.
Inhibition of calpain I activity was calculated as the percent decrease in the rate of substrate (S) hydrolysis in the presence of inhibitor (I) relative to the rate in its absence (o). Comparison between the inhibited and control rates was made within the linear range for substrate hydrolysis. For screening, compounds were tested at 10 μM. Compounds having 50% inhibition at 10 μM were considered active. […] The results were plotted as % inhibition versus log inhibitor concentration and the IC50 was calculated from linear regression of the data. Apparent second order rate constants were determined from analysis of reaction progress curves under pseudo-first order conditions. Each determination represents the means of three or more independent single cuvette analyses continually monitored via a Perkin-Elmer LS50B spectrofluorimeter. […]
where y is the product formed at time t. […] The apparent second order rate constant kapp was determined as Kobs /[I]. […]

For a further test, the target named is T2, thrombin (Homo sapiens, UniProt P00734).
T2 construct: purchased Sigma Chem. Co. T-7009
The experiment in a line: Inhibition of thrombin. The note with it: 25 μM Bz-Phe-Val-Arg-AMC, pH 7.5, read-out: Thrombin % I @ 10 uM. The procedure:
as §1
(§2) Inhibition of calpain I activity was calculated as the percent decrease in the rate of substrate (S) hydrolysis in the presence of inhibitor (I) relative to the rate in its absence (o). Comparison between the inhibited and control rates was made within the linear range for substrate hydrolysis. For screening, compounds were tested at 10 μM. Compounds having 50% inhibition at 10 μM were considered active. The IC50s of inhibitors (concentration yielding 50% inhibition) were determined from the percent decrease in the rates of substrate hydrolysis in the presence of five to seven different concentrations of the test compound. The results were plotted as % inhibition versus log inhibitor concentration and the IC50 was calculated from linear regression of the data. Apparent second order rate constants were determined from analysis of reaction progress curves under pseudo-first order conditions. Each determination represents the means of three or more independent single cuvette analyses continually monitored via a Perkin-Elmer LS50B spectrofluorimeter. The rate of inhibition of hydrolysis was obtained by fitting the curve to the exponential equation (1):
(§3) Additionally, because α-chymotrypsin is not a calcium sensitive enzyme and is constitutively active, following addition of inhibitor stocks to the 96 well plates, 100 μl of a 2-fold concentrated stock of enzyme in dilution buffer was first added and the reaction started by addition of 100 μl of a 2-fold concentrated stock of substrate in assay buffer. Substrate hydrolysis was monitored every 5 minutes up to 30 minutes using a Fluoroskan II ([…]).
Inhibition of thrombin (Sigma Chem. Co. Cat. #T-7009) was evaluated as described for chymotrypsin except that the assay was performed in 50 mM Tris, 10 mM CaCl2, pH 7.5 and the substrate was 25 μM Bz-Phe-Val-Arg-AMC (Bachem cat#I-1080).

For a further test, the target named is T3, α-chymotrypsin (Bos taurus, UniProt P00766).
T3 construct: purchased Sigma Chem. Co. C-3142
The experiment in a line: Inhibition of α-chymotrypsin. The note with it: pH 7.5, 10 μM, 0.03 mM Succ-Ala-Ala-Pro-Phe-AMC, read-out: Chymotrypsin % I @. The procedure: as §1, §2, §3

Test [2] addresses T1, Calpain I. The experiment in a line: Inhibition of calpain I activity (IC50, fluorescence plate reader). The note with it: substrate 0.2 mM Succ-Leu-Tyr-MNA, pH 7.5. How it is done: as §1
as §2, with “(1): […]” for “(1):”

Another test concerns the target T4, cathepsin B (Homo sapiens, UniProt P07858).
T4 construct: purchased Calbiochem 219364
The experiment in a line: Inhibition of cathepsin B. The note with it: pH 6, 1 uM, Cbz-Phe-Arg-AMC 0.1 mM, read-out: Cat B % I @ 1 uM.

For a further test, the target named is T5, cathepsin L (Homo sapiens, UniProt P07711).
T5 construct: purchased Calbiochem 219402
T5 sequence (P07711 114-288 limits assumed): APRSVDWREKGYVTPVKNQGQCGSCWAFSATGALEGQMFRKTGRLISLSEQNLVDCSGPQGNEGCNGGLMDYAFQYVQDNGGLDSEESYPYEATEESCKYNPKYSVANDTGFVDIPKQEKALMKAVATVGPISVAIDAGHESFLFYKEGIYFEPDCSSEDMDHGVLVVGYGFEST
T5 sequence (P07711 292-333 limits assumed): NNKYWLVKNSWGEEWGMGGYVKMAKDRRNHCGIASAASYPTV
The experiment in a line: Inhibition of cathepsin L. The settings on record: pH 6, 1 uM, Cbz-Phe-Arg-AMC 0.006 mM, read-out: Cat L % I @ 1 uM.

For the molecule `CC(C)CC(CC(=O)C1c2ccccc2Oc2ccccc21)C(=O)NC(Cc1ccccc1)C(=O)CF` (racemic) [Compound 14b, Xanthene-COCH2 CH(iBu)CO-Phe-CH2 F], the kinact/KI at Calpain I [1] turned out to be 75600 M⁻¹ s⁻¹. Moreover, the inhibition at 10 µM was 9% on thrombin and 98% on α-chymotrypsin.
As usually defined, the IC50 is the point on the concentration scale where inhibition reaches its midpoint. A higher IC50 goes with a need for much substance. For `CCNC(=O)C(=O)C(CC)NC(=O)C(CC(=O)[C@H](CC(C)C)NC(=O)OCc1ccccc1)CC(C)C` (some centres unmarked) [Compound 8e, Z-Leu-CH2 CH(iBu)CO-Abu-CONHEt], the IC50 against Calpain I [2] stood at 380 nM. In addition, the inhibition at 1 µM at cathepsin B came out at 100%; at cathepsin L, 95%. Also, the inhibition at 10 µM on thrombin and on α-chymotrypsin was 0% each time.
The molecule `CCNC(=O)C(=O)C(CC)NC(=O)C(CC(=O)C(c1ccccc1)c1ccccc1)CC(C)C` (centres unmarked) [Compound 8c, Ph2 CHCOCH2 CH(iBu)CO-Abu-CONHEt] returned an IC50 against Calpain I [2] of 1730 nM. The inhibition at 1 µM at cathepsin B and on cathepsin L was 100% throughout. For the same molecule, the inhibition at 10 µM worked out at 0% at thrombin and 6% on α-chymotrypsin.
For `CCC(C(=O)CC(CC(C)C)C(=O)NC(Cc1ccccc1)C(=O)CF)c1ccccc1` (centres unmarked) [Compound 14a, CH3 CH2 CH(Ph)COCH2 CH(iBu)CO-Phe-CH2 F], the kinact/KI on Calpain I [1] is 5800 M⁻¹ s⁻¹. The inhibition at 10 µM at thrombin stood at 0%; at α-chymotrypsin, 33%.
The molecule `CCNC(=O)C(=O)C(CC)NC(=O)C(CC(=O)C1c2ccccc2Oc2ccccc21)CC(C)C` (centres unmarked) [Compound 8d, Xanthene-COCH2 CH(iBu.)CO-Abu-CONHEt] came in with an IC50 against Calpain I [2] of 485 nM. The inhibition at 1 µM on cathepsin B came to 78%; on cathepsin L, 100%. Besides, the figures for the inhibition at 10 µM on thrombin and at α-chymotrypsin were 10% and 7%, respectively.
Regarding `CCNC(=O)C(=O)C(CC)NC(=O)C(CC(=O)CCCCc1ccccc1)CC(C)C` (centres unmarked) [Compound 8a, Ph(CH2)4 COCH2 CH(iBu)CO-Abu-CONHEt], on Calpain I [2], the IC50 was 8440 nM. Further, the results for the inhibition at 1 µM at cathepsin B and at cathepsin L were 10% and 81%, respectively. Besides, the inhibition at 10 µM on thrombin and at α-chymotrypsin was 0% each time.
Regarding `CC(C)CC(CC(=O)[C@H](CC(C)C)NC(=O)OCc1ccccc1)C(=O)NC(Cc1ccccc1)C(=O)CF` (some centres unmarked) [Compound 14c, Z-Leu-CH2 CH(iBu)CO-Phe-CH2 F], on Calpain I [1], the kinact/KI came to 16800 M⁻¹ s⁻¹. The inhibition at 10 µM on thrombin is 0%; on α-chymotrypsin it was 82%.
